These results are taken from publication PMC7138817, “The [4Fe-4S] cluster of sulfurtransferase TtuA desulfurizes TtuB during tRNA modification in Thermus thermophilus” (Communications Biology, 2020).

Assay [1] addresses T1, holo-TthTtuA–TthTtuB complex (Thermus thermophilus, UniProt Q72LF3+Q72LF4).
T1 construct: gene ttuA; co-expressed in E. coli B834(DE3) from pETDuet-1; His6-tag plus four residues at N-terminus of TtuB, TtuA untagged; TtuB-COOH form; TtuA-TtuB heterodimers
As to the kind of experiment: X-ray crystal structure, […] Å. Type of assay: binding. The note with it: reconstituted with ferric chloride and sulfide, anaerobic; bound by three Cys of TtuA, unique Fe coordinated by C-terminal carboxylate of TtuB.

In a further assay the target is T2, holo-TtuA (Thermus thermophilus, UniProt Q72LF3).
T2 construct: TtuA without TtuB, prepared as in an earlier publication
T2 sequence (Q72LF3 1-321): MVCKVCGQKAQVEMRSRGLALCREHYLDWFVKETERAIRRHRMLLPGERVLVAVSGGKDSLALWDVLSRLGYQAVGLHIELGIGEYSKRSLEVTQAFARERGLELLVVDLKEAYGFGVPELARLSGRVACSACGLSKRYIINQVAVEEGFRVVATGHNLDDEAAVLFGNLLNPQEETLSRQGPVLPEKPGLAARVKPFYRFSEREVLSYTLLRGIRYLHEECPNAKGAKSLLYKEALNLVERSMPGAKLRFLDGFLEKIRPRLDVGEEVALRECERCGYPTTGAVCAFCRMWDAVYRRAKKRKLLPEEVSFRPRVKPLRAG
As to the kind of experiment: EPR spectroscopy, X-band, […] K. The note with it: dithionite-reduced, anaerobic, no TtuB. In kind it is binding.

The target in assay [2] is T3, holo-TtuA (purified alone, with [4Fe-4S] cluster) used for EPR with added TtuB-COSH (Thermus thermophilus, UniProt Q72LF3 1-321).
T3 construct: TtuA, Thermus thermophilus; carries a [4Fe-4S] cluster, reduced with sodium dithionite for EPR; also called DT-reduced TtuA; source: purified
T3 sequence (looked up): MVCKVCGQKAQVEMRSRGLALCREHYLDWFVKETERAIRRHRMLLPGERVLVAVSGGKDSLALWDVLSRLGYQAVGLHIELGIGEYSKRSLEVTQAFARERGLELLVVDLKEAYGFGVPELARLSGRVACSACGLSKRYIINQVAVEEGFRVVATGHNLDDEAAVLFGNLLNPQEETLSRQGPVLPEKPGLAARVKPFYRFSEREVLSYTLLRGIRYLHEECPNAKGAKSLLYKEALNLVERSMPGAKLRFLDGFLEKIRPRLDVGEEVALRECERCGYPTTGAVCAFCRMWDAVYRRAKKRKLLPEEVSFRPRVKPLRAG
As to the kind of experiment: EPR spectroscopy; purified holo-TtuA mixed with TtuB-COSH (molar ratio 1:3, 0.6 mM:2.0 mM), incubated at 298 K for 5 min, reduced with sodium dithionite, frozen; X-band spectra at 7, 12 and 29 K; compared with TtuA without TtuB-COSH. The note with it: both partners purified.

The star is where a group is joined. thiocarboxylate = C-terminal -COSH in place of -COOH, S*

Take `[S]12[Fe]3[S]4[Fe]1[S]1[Fe]2[S]3[Fe]41` [[4Fe-4S] cluster]: the “X-ray crystal structure, 2.2 Å” value in assay [1] is “unique Fe site of the [4Fe-4S] cluster and the C-terminus of TtuB was observed”. Further, at holo-TtuA, the “EPR spectroscopy, X-band, 12 K” value is “TtuA in the absence of TtuB-COSH is the typical rhombic signal of the [4Fe-4S] cluster”.

B1: TtuB-COSH (TtuB with thiocarboxylated C-terminus) (natural protein, Thermus thermophilus, UniProt Q72LF4 1-65, looked up)
chain: MRVVLRLPERKEVEVKGNRPLREVLEELGLNPETVVAVRGEELLTLEDEVREEDTLEVLSAISGG-thiocarboxylate
notes: TtuB, ubiquitin-like sulfur donor protein, Thermus thermophilus; also called thiocarboxylated TtuB
Regarding B1, the binding result in assay [2] is recorded as “binds”.
